This note sets out measurements from US9534300B2, “Water soluble substituted imidazolines as corrosion inhibitors for ferrous metals” (Ecolab USA, Inc., priority 2014, dated 2017).

A short description of this data set: Solubility in water of synthesized substituted imidazolines. In kind it is physicochemical.
Regarding `CCCCCC1=NCCN1CCNCCC(=O)O` [No. 5, 3-((2-(2-pentyl-4,5-dihydro-1H-imidazol-1-yl)ethyl)amino)propanoic acid], the Solubility in water entry is “Yes Yes Yes”.

Regarding `CCCCCCCC1=NCCN1CCNCCC(=O)O` [No. 6, 3-((2-(2-heptyl-4,5-dihydro-1H-imidazol-1-yl)ethyl)amino)propanoic acid], the Solubility in water result was “Yes Yes Yes”.

`CCCCCCCCCCCC1=NCCN1CCNCCC(=O)O` [No. 7, 3-((2-(2-undecyl-4,5-dihydro-1H-imidazol-1-yl)ethyl)amino)propanoic acid]: the Solubility in water result was “Yes Yes Yes”.
